Experimental data as given in US20250136576A1, “Heterocyclic Compounds and Uses Thereof” (ACEA Therapeutics, Inc., priority 2021, published 2025).
pIC50: −log10 of the molar value.

test system: KM12-luc cells; assay: Cell proliferation and growth inhibition assay (CCK-8) in KM12-luc; format: cell-based; details: KM12-Luc, 72 h, KM12-luc cells, treated with test compounds for 72 hrs, CCK-8 viability; read-out: NTRK IC50 in KM12-luc
Procedure, shortened: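 Cells were grown at 37 °C, 5% CO2 with 10% FBS: MV-4-11 in IMDM, H1975 in RPMI 1640, KM12-luc in DMEM. Viability was read by CCK-8 (1-4 hrs reagent incubation, absorbance at OD450). IC50 came from a non-linear sigmoidal dose-response fit.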

Row | SMILES | pIC50
1 | COc1cnc(-n2cc(-c3nc(Nc4ccc(N(C)CCN(C)C)c(NC(C)=O)c4)ncc3OC)c3ccccc32)nc1-c1c[nH]c2ccccc12 [Compound 272b, N-(5-(4-(1-(4-(1H-indol-3-yl)-5-methoxypyrimidin-2-yl)-1H-indol-3-yl)-5-methoxypyrimidin-2-ylamino)-2-((2-(dimethylamino)ethyl)(methyl)amino)phenyl)acetamide] | 5.69
2 | CNc1cc(Nc2ncc(OC)c(-c3c[nH]c4ccccc34)n2)ccc1N(C)CCN(C)C [Compound 273a, N^4-(4-(1H-indol-3-yl)-5-methoxypyrimidin-2-yl)-N1-(2-(dimethylamino)ethyl)-N^1,N^2-dimethylbenzene-1,2,4-triamine] | 6.90
3 | CNc1cc(Nc2ncc(OC)c(-c3cn(-c4ncc(OC)c(-c5c[nH]c6ccccc56)n4)c4ccccc34)n2)ccc1N(C)CCN(C)C [Compound 273b, N^4-(4-(1-(4-(1H-indol-3-yl)-5-methoxypyrimidin-2-yl)-1H-indol-3-yl)-5-methoxypyrimidin-2-yl)-N^1-(2-(dimethylamino)ethyl)-N^1,N^2-dimethylbenzene-1,2,4-triamine] | 5.48
4 | COc1cnc(Nc2ccc(N(C)CCN(C)C)c(NC(C)=O)c2)nc1-c1cn(C)c2ccccc12 [Compound 274, N-(2-((2-(dimethylamino)ethyl)(methyl)amino)-5-(5-methoxy-4-(1-methyl-1H-indol-3-yl)pyrimidin-2-ylamino)phenyl)acetamide] | 6.89
5 | CNc1cc(Nc2ncc(OC)c(-c3cn(C)c4ccccc34)n2)ccc1N(C)CCN(C)C [Compound 275, N^1-(2-(dimethylamino)ethyl)-N^4-(5-methoxy-4-(1-methyl-1H-indol-3-yl)pyrimidin-2-yl)-N^1,N^2-dimethylbenzene-1,2,4-triamine] | 6.22
6 | COc1cnc(Nc2ccc(N(C)CCN(C)C)c(NCC(F)(F)F)c2)nc1-c1cn(C)c2ccccc12 [Compound 276, N^1-(2-(dimethylamino)ethyl)-N^4-(5-methoxy-4-(1-methyl-1H-indol-3-yl)pyrimidin-2-yl)-N^1-methyl-N^2-(2,2,2-trifluoroethyl)benzene-1,2,4-triamine] | 6.17
7 | COc1cnc(Nc2ccc(N(C)CCN(C)C)c(NC(C)=O)c2)nc1-c1cn(C)c2cccc(F)c12 [Compound 277, N-(2-((2-(dimethylamino)ethyl)(methyl)amino)-5-((4-(4-fluoro-1-methyl-1H-indol-3-yl)-5-methoxypyrimidin-2-yl)amino)phenyl)acetamide] | 6.43
8 | COc1cnc(Nc2ccc(N(CCN(C)C)C(C)=O)c(NC(C)=O)c2)nc1-c1c[nH]c2c(F)cccc12 [Compound 278, N-(2-acetamido-4-((4-(7-fluoro-1H-indol-3-yl)-5-methoxypyrimidin-2-yl)amino)phenyl)-N-(2-(dimethylamino)ethyl)acetamide] | 7.77
9 | COc1cnc(Nc2ccc(OCCN(C)C)c(NC(C)=O)c2)nc1-c1c[nH]c2c(F)cccc12 [Compound 279, N-(2-(2-(dimethylamino)ethoxy)-5-((4-(7-fluoro-1H-indol-3-yl)-5-methoxypyrimidin-2-yl)amino)phenyl)acetamide] | 7.28
10 | COc1cnc(Nc2ccc(OCCN(C)C)c(N)c2)nc1-c1cn(C)c2c(F)cccc12 [Compound 283, 4-(2-(dimethylamino)ethoxy)-N^1-(4-(7-fluoro-1-methyl-1H-indol-3-yl)-5-methoxypyrimidin-2-yl)benzene-1,3-diamine] | 7.06
11 | COc1cnc(Nc2ccc(OCCN(C)C)c(NC(C)=O)c2)nc1-c1cn(C)c2c(C)cccc12 [Compound 285, N-(5-((4-(1,7-dimethyl-1H-indol-3-yl)-5-methoxypyrimidin-2-yl)amino)-2-(2-(dimethylamino)ethoxy)phenyl)acetamide] | 7.00
12 | COc1cnc(Nc2ccc(N(CCN(C)C)C(C)=O)c(NC(C)=O)c2)nc1-c1c[nH]c2c(OC)cccc12 [Compound 286, N-(2-acetamido-4-((5-methoxy-4-(7-methoxy-1H-indol-3-yl)pyrimidin-2-yl)amino)phenyl)-N-(2-(dimethylamino)ethyl)acetamide] | 7.84
